We go through 30 compounds from US20230295212A1 (ROME Therapeutics, Inc., priority 2022, published 2023).

The first experiment deals with T1, LINE1 reverse transcriptase (Homo sapiens, UniProt O00370).
T1 construct: expressed in transfected cells; host or cells: HeLa Tet-On 3G (Takara, cat no 631183)
T1 sequence (O00370 whole entry, looked up): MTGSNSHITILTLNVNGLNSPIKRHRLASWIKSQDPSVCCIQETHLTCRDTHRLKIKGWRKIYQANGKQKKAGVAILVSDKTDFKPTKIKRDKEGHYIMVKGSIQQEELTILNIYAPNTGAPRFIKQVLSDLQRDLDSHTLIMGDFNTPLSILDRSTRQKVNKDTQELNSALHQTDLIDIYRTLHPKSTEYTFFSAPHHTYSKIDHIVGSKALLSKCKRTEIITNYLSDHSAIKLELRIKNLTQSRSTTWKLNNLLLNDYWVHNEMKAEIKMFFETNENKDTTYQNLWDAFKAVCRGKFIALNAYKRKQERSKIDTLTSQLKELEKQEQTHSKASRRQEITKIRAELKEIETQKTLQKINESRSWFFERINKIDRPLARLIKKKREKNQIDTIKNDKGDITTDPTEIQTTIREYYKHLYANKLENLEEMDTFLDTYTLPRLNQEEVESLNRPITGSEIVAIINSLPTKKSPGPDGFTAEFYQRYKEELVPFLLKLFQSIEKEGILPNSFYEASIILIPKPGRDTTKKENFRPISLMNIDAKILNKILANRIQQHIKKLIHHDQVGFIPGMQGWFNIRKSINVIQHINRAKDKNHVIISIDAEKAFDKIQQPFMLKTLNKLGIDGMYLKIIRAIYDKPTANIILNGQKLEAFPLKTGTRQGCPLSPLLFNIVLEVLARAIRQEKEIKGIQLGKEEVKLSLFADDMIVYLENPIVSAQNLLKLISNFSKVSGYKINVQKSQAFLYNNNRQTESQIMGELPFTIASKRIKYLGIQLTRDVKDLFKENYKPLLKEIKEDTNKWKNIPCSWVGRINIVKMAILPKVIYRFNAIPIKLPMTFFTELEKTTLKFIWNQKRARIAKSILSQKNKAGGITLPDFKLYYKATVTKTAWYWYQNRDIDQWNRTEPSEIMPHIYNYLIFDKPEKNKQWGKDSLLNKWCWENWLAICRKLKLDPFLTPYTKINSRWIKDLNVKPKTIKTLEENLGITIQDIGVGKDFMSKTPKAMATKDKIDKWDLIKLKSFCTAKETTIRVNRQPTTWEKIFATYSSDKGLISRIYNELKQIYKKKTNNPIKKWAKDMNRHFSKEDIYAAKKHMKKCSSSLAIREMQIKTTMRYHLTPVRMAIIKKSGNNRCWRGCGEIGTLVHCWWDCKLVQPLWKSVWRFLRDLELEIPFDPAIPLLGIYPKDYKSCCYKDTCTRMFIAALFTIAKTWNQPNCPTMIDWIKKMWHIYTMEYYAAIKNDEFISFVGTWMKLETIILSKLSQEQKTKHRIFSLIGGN
In words: Stable artificial-intron Cis LINE1 reporter assay (HeLa Tet-On 3G, Firefly luciferase). In kind it is cell-based. The following applies: HeLa L1 artificial-intron reporter cells, doxycycline 500 ng/mL, 72 h, class symbols. Here is the method: Exemplary compounds, were tested for the ability to inhibit LINE1 reverse transcriptase using a stable artificial-intron Cis LINE1 reporter assay. Assay procedures and results are described below.
A stable HeLa Tet-On 3G (Takara, cat no 631183) cell line expressing a bi-directional inducible LINE1 construct was generated as described in Xie, Y. et al. “Cell division promotes efficient retrotransposition in a stable L1 reporter cell line,” Mobile DNA (2013) 4:10. Single cell clones were screened for high Luciferase expression and the highest expression Firefly expressing clone was chosen for compound testing.
Test compounds were serially diluted in DMSO and spotted in 96-well plates. Subsequently, the HeLa Li artificial-intron reporter cells were plated into the compound-containing wells (8,000 cells/well), and the cells were induced for reporter expression with doxycycline (Sigma-Aldrich cat #D9891) at a final concentration of 500 ng/mL. Luminescence was measured 72 h after plating using the Dual-Glo Luciferase Assay System (Promega cat #E2940) following the manufacturer's instructions. The Firefly Luciferase activity was used to report LINE1 activity.
For `O=c1ccn([C@@H]2OC(CO)(CO)[C@@H](O)[C@@H]2F)c(=O)[nH]1` [Compound 3, 1-((2R,3S,4R)-3-fluoro-4-hydroxy-5,5-bis(hydroxymethyl)tetrahydrofuran-2-yl)pyrimidine-2,4(1H,3H)-dione], the IC50 is over 1 µM. `Cc1cn([C@H]2C[C@H](O)[C@](CO)(CCl)O2)c(=O)[nH]c1=O` [Compound 4, 1-((2R,4S,5R)-5-(chloromethyl)-4-hydroxy-5-(hydroxymethyl)tetrahydrofuran-2-yl)-5-methylpyrimidine-2,4(1H,3H)-dione] registered an IC50 of over 1 µM. On the same count and under the same terms, with `C#C[C@]1(CO)O[C@@H](n2cnc3c(N)nc(Cl)nc32)[C@@H](F)[C@@H]1O` [Compound 5, (2R,3R,4S,5R)-5-(6-amino-2-chloro-9H-purin-9-yl)-2-ethynyl-4-fluoro-2-(hydroxymethyl)tetrahydrofuran-3-ol] the figure was 0.05 to 0.1 µM. For the compound `O=c1nc(NO)ccn1[C@H]1C[C@H](O)[C@](CO)(CCl)O1` [Compound 6, 1-((2R,4S,5R)-5-(chloromethyl)-4-hydroxy-5-(hydroxymethyl)tetrahydrofuran-2-yl)-4-(hydroxyamino)pyrimidin-2(1H)-one], the IC50 is 0.1 to 0.25 µM. In turn, `Cc1cn([C@H]2C[C@H](F)[C@](CO)(CCl)O2)c(=O)[nH]c1=O` [Compound 7, 1-((2R,4S,5R)-5-(chloromethyl)-4-fluoro-5-(hydroxymethyl)tetrahydrofuran-2-yl)-5-methylpyrimidine-2,4(1H,3H)-dione] returned an IC50 of over 1 µM. In turn, `Nc1nc(F)nc2c1ncn2[C@H]1C[C@H](O)[C@](CO)(CCl)O1` [Compound 8, (2R,3S,5R)-5-(6-amino-2-fluoro-9H-purin-9-yl)-2-(chloromethyl)-2-(hydroxymethyl)tetrahydrofuran-3-ol] returned a half-maximal inhibitory concentration (IC50) of 0.1 to 0.25 µM. The same measure, in the same setting: as for `Cc1cn([C@@H]2O[C@@](CO)(CCl)[C@@H](O)[C@H]2F)c(=O)[nH]c1=O` [Compound 9, 1-((2R,3R,4R,5R)-5-(chloromethyl)-3-fluoro-4-hydroxy-5-(hydroxymethyl)tetrahydrofuran-2-yl)-5-methylpyrimidine-2,4(1H,3H)-dione], the figure is over 1 µM. Take `Nc1nc(F)nc2c1ncn2[C@H]1C[C@H](O)C(CO)(CO)O1` [Compound 10, ((3S,5R)-5-(6-amino-2-fluoro-9H-purin-9-yl)-3-hydroxytetrahydrofuran-2,2-diyl)dimethanol]: the half-inhibitory concentration (IC50) is over 1 µM.

`Cc1cn([C@H]2C[C@H](O)[C@](CO)(CCl)O2)c(=O)nc1N` [Compound 11, 4-amino-1-((2R,4S,5R)-5-(chloromethyl)-4-hydroxy-5-(hydroxymethyl)tetrahydrofuran-2-yl)-5-methylpyrimidin-2(1H)-one] showed an IC50 of over 1 µM. Regarding `C[C@@H]1[C@H](n2ccc(N)nc2=O)O[C@@](CO)(CCl)[C@H]1O` [Compound 12, 4-amino-1-((2R,3S,4S,5R)-5-(chloromethyl)-4-hydroxy-5-(hydroxymethyl)-3-methyltetrahydrofuran-2-yl)pyrimidin-2(1H)-one], the IC50 lay in the range of 0.25 to 1 µM.

`CO[C@@H]1[C@H](n2ccc(N)nc2=O)O[C@@](CO)(CCl)[C@H]1O` [Compound 13, 4-amino-1-((2R,3S,4S,5R)-5-(chloromethyl)-4-hydroxy-5-(hydroxymethyl)-3-methoxytetrahydrofuran-2-yl)pyrimidin-2(1H)-one] showed an IC50 of 0.25 to 1 µM.

Compound `Nc1ncnc2c1ncn2[C@H]1C[C@H](O)[C@](CO)(CCl)O1` [Compound 15, (2R,3S,5R)-5-(6-amino-9H-purin-9-yl)-2-(chloromethyl)-2-(hydroxymethyl)tetrahydrofuran-3-ol] displayed a half-maximal inhibitory concentration (IC50) of 0.25 to 1 µM. The same measure, in the same setting: as for `Nc1ccn([C@H]2C[C@H](O)[C@](CO)(C3CC3)O2)c(=O)n1` [Compound 16, 4-amino-1-((2R,4S,5R)-5-cyclopropyl-4-hydroxy-5-(hydroxymethyl)tetrahydrofuran-2-yl)pyrimidin-2(1H)-one], the figure is 0.25 to 1 µM; as for `Nc1cnn([C@H]2C[C@H](O)[C@](CO)(CCl)O2)c(=O)n1` [Compound 18, 5-amino-2-((2R,4S,5R)-5-(chloromethyl)-4-hydroxy-5-(hydroxymethyl)tetrahydrofuran-2-yl)-1,2,4-triazin-3(2H)-one], over 1 µM; as for `C[C@@H]1[C@H](n2ccc(N)nc2=O)O[C@](C)(CO)[C@H]1O` [Compound 19, 4-amino-1-((2R,3S,4S,5R)-4-hydroxy-5-(hydroxymethyl)-3,5-dimethyltetrahydrofuran-2-yl)pyrimidin-2(1H)-one], 0.25 to 1 µM. The same measure, in the same setting: with `C#C[C@@H]1[C@H](n2ccc(N)nc2=O)O[C@](C)(CO)[C@H]1O` [Compound 20, 4-amino-1-((2R,3S,4S,5R)-3-ethynyl-4-hydroxy-5-(hydroxymethyl)-5-methyltetrahydrofuran-2-yl)pyrimidin-2(1H)-one] the figure was over 1 µM. The same measure, in the same setting: as for `Nc1ccn([C@H]2C[C@H](O)[C@](CO)(C(F)(F)F)O2)c(=O)n1` [Compound 21, 4-amino-1-((2R,4S,5R)-4-hydroxy-5-(hydroxymethyl)-5-(trifluoromethyl)tetrahydrofuran-2-yl)pyrimidin-2(1H)-one], the figure is 0.25 to 1 µM. The compound `Nc1nc(=O)n([C@H]2C[C@H](O)[C@](CO)(CF)O2)cc1F` [Compound 22, 4-amino-5-fluoro-1-((2R,4S,5R)-5-(fluoromethyl)-4-hydroxy-5-(hydroxymethyl)tetrahydrofuran-2-yl)pyrimidin-2(1H)-one] came in with an IC50 of at most 0.05 µM.

`CC(C)C(=O)OC[C@@]1(CCl)O[C@@H](n2ccc(N)nc2=O)[C@H](F)[C@@H]1OC(=O)C(C)C` [Compound 24, (2R,3R,4R,5R)-5-(4-amino-2-oxopyrimidin-1(2H)-yl)-2-(chloromethyl)-4-fluoro-2-((isobutyryloxy)methyl) tetrahydrofuran-3-yl isobutyrate] gave an IC50 of 0.25 to 1 µM. `C#C[C@]1(CO)O[C@@H](n2cnc3c(N)ncnc32)C[C@@H]1O` [Compound 27, (2R,3S,5R)-5-(6-amino-9H-purin-9-yl)-2-ethynyl-2-(hydroxymethyl) tetrahydrofuran-3-ol] showed a half-maximal inhibitory concentration (IC50) of at most 0.05 µM. Consider `O=c1nc(NO)ccn1[C@@H]1O[C@@](CO)(CCl)[C@@H](O)[C@H]1F` [Compound 28, 1-((2R,3R,4R,5R)-5-(chloromethyl)-3-fluoro-4-hydroxy-5-(hydroxymethyl)tetrahydrofuran-2-yl)-4-(hydroxyamino)pyrimidin-2(1H)-one], for which the 50% inhibitory concentration (IC50) was over 1 µM. On to `O=c1ccn([C@@H]2O[C@@](CO)(CCl)[C@@H](O)[C@H]2F)c(=O)[nH]1` [Compound 29, 1-((2R,3R,4R,5R)-5-(chloromethyl)-3-fluoro-4-hydroxy-5-(hydroxymethyl)tetrahydrofuran-2-yl)pyrimidine-2,4(1H,3H)-dione], for which the IC50 was over 1 µM. As for `Cc1cn([C@H]2C[C@H](O)[C@](CO)(N=[N+]=[N-])O2)c(=O)[nH]c1=O` [Compound 30, 1-((2R,4S,5R)-5-azido-4-hydroxy-5-(hydroxymethyl)tetrahydrofuran-2-yl)-5-methylpyrimidine-2,4(1H,3H)-dione], the IC50 is over 1 µM. In the case of `Nc1ccn([C@@H]2O[C@@](CO)(CCl)[C@@H](O)[C@H]2F)c(=O)n1` [Compound 31, 4-amino-1-((2R,3R,4R,5R)-5-(chloromethyl)-3-fluoro-4-hydroxy-5-(hydroxymethyl)tetrahydrofuran-2-yl)pyrimidin-2(1H)-one], the IC50 was at most 0.05 µM. In the case of `C#C[C@]1(CO)O[C@@H](n2ccc(N)nc2=O)[C@H](F)[C@@H]1O` [Compound 32, 4-amino-1-((2R,3R,4R,5R)-5-ethynyl-3-fluoro-4-hydroxy-5-(hydroxymethyl)tetrahydrofuran-2-yl)pyrimidin-2(1H)-one], the 50% inhibitory concentration (IC50) was over 1 µM.

In turn, `C#C[C@]1(CO)O[C@@H](n2ccc(=O)[nH]c2=O)[C@H](F)[C@@H]1O` [Compound 33, 1-((2R,3R,4R,5R)-5-ethynyl-3-fluoro-4-hydroxy-5-(hydroxymethyl)tetrahydrofuran-2-yl)pyrimidine-2,4(1H,3H)-dione] registered a half-maximal inhibitory concentration (IC50) of over 1 µM. On the same count and under the same terms, with `C#C[C@]1(CO)O[C@@H](n2ccc(N)nc2=O)[C@@H](F)[C@@H]1O` [Compound 35, 4-amino-1-((2R,3S,4R,5R)-5-ethynyl-3-fluoro-4-hydroxy-5-(hydroxymethyl)tetrahydrofuran-2-yl)pyrimidin-2(1H)-one] the figure was at most 0.05 µM; with `C#C[C@]1(CO)O[C@@H](n2ccc(=O)[nH]c2=O)[C@@H](F)[C@@H]1O` [Compound 36, 1-((2R,3S,4R,5R)-5-ethynyl-3-fluoro-4-hydroxy-5-(hydroxymethyl)tetrahydrofuran-2-yl)pyrimidine-2,4(1H,3H)-dione], over 1 µM.

Still in this experiment, the particulars now being: HeLa L1 artificial-intron reporter cells, doxycycline 500 ng/mL, 72 h, numeric bounds.
As for `C#C[C@@H]1[C@H](n2ccc(N)nc2=O)O[C@@](CO)(CCl)[C@H]1O` [Compound 17, 4-amino-1-((2R,3S,4S,5R)-5-(chloromethyl)-3-ethynyl-4-hydroxy-5-(hydroxymethyl)tetrahydrofuran-2-yl)pyrimidin-2(1H)-one], the IC50 is over 30 µM. Compound `O=c1ccn([C@H]2C[C@H](O)[C@](CO)(CCl)O2)c(=O)[nH]1` [Compound 34, 1-((2R,4S,5R)-5-(chloromethyl)-4-hydroxy-5-(hydroxymethyl)tetrahydrofuran-2-yl)pyrimidine-2,4(1H,3H)-dione] registered an IC50 of over 30 µM.
